Measured values published in PubChem BioAssay AID248 (DTP/NCI, 2004).
Where “and” joins values, the source holds several entries; their conditions need not be identical. Identical values can stand only once. Inconclusive results and toxic doses are left out.

Test system: L1210 leukemia ip in BDF1 mice, survival T/C
Assay: NCI In Vivo Anticancer Drug Screen. Data for tumor model L1210 Leukemia (intraperitoneal) in B6D2F1 (BDF1) mice
Details: higher = longer survival
Method in brief: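 Transplanted-tumor mice were given test agent; controls received vehicle only. Survival readings from the two groups were divided (treated over control).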

[1] = endpoint: mean survival time, dose: 100.0 mg/kg/injection, schedule: Q04DX003 (ip), vehicle: Klucel (hydroxypropylcellulose) (HPC)
[2] = endpoint: mean survival time, dose: 200.0 mg/kg/injection, schedule: Q04DX003 (ip), vehicle: Klucel (hydroxypropylcellulose) (HPC)
[3] = endpoint: mean survival time, dose: 400.0 mg/kg/injection, schedule: Q04DX003 (ip), vehicle: Klucel (hydroxypropylcellulose) (HPC)
[4] = endpoint: mean survival time, dose: 50.0 mg/kg/injection, schedule: Q01DX009 (ip), vehicle: saline
[5] = endpoint: mean survival time, dose: 100.0 mg/kg/injection, schedule: Q01DX009 (ip), vehicle: saline
[6] = endpoint: mean survival time, dose: 200.0 mg/kg/injection, schedule: Q01DX009 (ip), vehicle: saline
[7] = endpoint: mean survival time, dose: 100.0 mg/kg/injection, schedule: Q01DX001 (ip), vehicle: Klucel (hydroxypropylcellulose) (HPC)
[8] = endpoint: mean survival time, dose: 200.0 mg/kg/injection, schedule: Q01DX001 (ip), vehicle: Klucel (hydroxypropylcellulose) (HPC)
[9] = endpoint: mean survival time, dose: 400.0 mg/kg/injection, schedule: Q01DX001 (ip), vehicle: Klucel (hydroxypropylcellulose) (HPC)
[10] = endpoint: mean survival time, dose: 100.0 mg/kg/injection, schedule: Q04DX002 (ip), vehicle: Klucel (hydroxypropylcellulose) (HPC)
[11] = endpoint: mean survival time, dose: 200.0 mg/kg/injection, schedule: Q04DX002 (ip), vehicle: Klucel (hydroxypropylcellulose) (HPC)
[12] = endpoint: mean survival time, dose: 400.0 mg/kg/injection, schedule: Q04DX002 (ip), vehicle: Klucel (hydroxypropylcellulose) (HPC)
[13] = endpoint: mean survival time, dose: 100.0 mg/kg/injection, schedule: Q04DX003 (ip), vehicle: saline
[14] = endpoint: mean survival time, dose: 200.0 mg/kg/injection, schedule: Q04DX003 (ip), vehicle: saline
[15] = endpoint: mean survival time, dose: 100.0 mg/kg/injection, schedule: Q01DX009 (ip), vehicle: Klucel (hydroxypropylcellulose) (HPC)
[16] = endpoint: mean survival time, dose: 200.0 mg/kg/injection, schedule: Q01DX009 (ip), vehicle: Klucel (hydroxypropylcellulose) (HPC)
[17] = endpoint: mean survival time, dose: 400.0 mg/kg/injection, schedule: Q01DX009 (ip), vehicle: Klucel (hydroxypropylcellulose) (HPC)
[18] = endpoint: mean survival time, dose: 100.0 mg/kg/injection, schedule: Q01DX009 (ip), vehicle: saline with Tween-80
[19] = endpoint: mean survival time, dose: 200.0 mg/kg/injection, schedule: Q01DX009 (ip), vehicle: saline with Tween-80
[20] = endpoint: mean survival time, dose: 400.0 mg/kg/injection, schedule: Q01DX009 (ip), vehicle: saline with Tween-80

Nc1nc2nc(N=Nc3ccc(C(=O)O)cc3)[nH]c2c(=O)[nH]1
T/C [1]: 96 % of control
T/C [2]: 91 % of control
T/C [3]: 99 % of control

O=c1[nH]c2cccnc2c(=O)n1O
T/C (endpoint: mean survival time, dose: 175.0 mg/kg/injection, schedule: Q04DX003 (ip), vehicle: carboxymethylcellulose (CMC)): 108 % of control
T/C (endpoint: mean survival time, dose: 350.0 mg/kg/injection, schedule: Q04DX003 (ip), vehicle: carboxymethylcellulose (CMC)): 92 % of control

O=C(c1ccc(Cl)cc1)C(NCCO)c1ccc(Cl)cc1 (stereo not given)
T/C (endpoint: mean survival time, dose: 50.0 mg/kg/injection, schedule: Q01DX001 (ip), vehicle: saline): 97 % of control
T/C (endpoint: mean survival time, dose: 100.0 mg/kg/injection, schedule: Q01DX001 (ip), vehicle: saline): 101 % of control
T/C (endpoint: mean survival time, dose: 200.0 mg/kg/injection, schedule: Q01DX001 (ip), vehicle: saline): 95 % of control
T/C (endpoint: mean survival time, dose: 400.0 mg/kg/injection, schedule: Q01DX001 (ip), vehicle: saline): 95 % of control

O=C(NC(=S)c1ccc[nH]1)Nc1ccccc1
T/C [4]: 93 % of control
T/C [5]: 90 % of control
T/C [6]: 90 % of control

S=C(NCc1ccccc1)c1ccccc1
T/C [7]: 106 % of control
T/C [8]: 108 % of control
T/C [9]: 104 % of control

Cc1ccc(OCCO)cc1C
T/C [10]: 120 % of control
T/C [11]: 92 % of control
T/C [12]: 92 % of control

Cc1c(C)c(C)c(CNNC(=S)Nc2ccc(S(=O)(=O)N3CCCCC3)cc2)c(C)c1C
T/C [10]: 104 % of control
T/C [11]: 92 % of control
T/C [12]: 95 % of control

Cc1ccc([N+](=O)[O-])cc1NC(=O)SCc1ccccc1
T/C [1]: 93 % of control
T/C [2]: 102 % of control
T/C [3]: 105 % of control

Cc1ccc(C(O)(c2ccc(C)cc2)C2C(c3ccccc3)N2C)cc1 (stereo not given)
T/C [7]: 98 % of control
T/C [8]: 96 % of control
T/C [9]: 102 % of control

CCCN(C)/N=N/c1nc[nH]c1C(N)=O
T/C (endpoint: mean survival time, dose: 22.0 mg/kg/injection, schedule: Q01DX009 (ip), vehicle: carboxymethylcellulose (CMC)): 120 % of control
T/C (endpoint: mean survival time, dose: 37.5 mg/kg/injection, schedule: Q01DX Z (ip), vehicle: carboxymethylcellulose (CMC)): 151 % of control
T/C (endpoint: mean survival time, dose: 50.0 mg/kg/injection, schedule: Q01DX009 (ip), vehicle: carboxymethylcellulose (CMC)): 151 % of control
T/C (endpoint: mean survival time, dose: 50.0 mg/kg/injection, schedule: Q01DX Z (ip), vehicle: carboxymethylcellulose (CMC)): 158 % of control
T/C (endpoint: mean survival time, dose: 75.0 mg/kg/injection, schedule: Q01DX009 (ip), vehicle: carboxymethylcellulose (CMC)): 157 % of control
T/C (endpoint: mean survival time, dose: 88.0 mg/kg/injection, schedule: Q01DX001 (ip), vehicle: carboxymethylcellulose (CMC)): 106 % of control
T/C (endpoint: mean survival time, dose: 89.0 mg/kg/injection, schedule: Q01DX001 (ip), vehicle: carboxymethylcellulose (CMC)): 117 % of control
T/C (endpoint: mean survival time, dose: 100.0 mg/kg/injection, schedule: Q01DX009 (ip), vehicle: carboxymethylcellulose (CMC)): 152 % of control
T/C (endpoint: mean survival time, dose: 133.0 mg/kg/injection, schedule: Q01DX001 (ip), vehicle: carboxymethylcellulose (CMC)): 101 % of control and 124 % of control
T/C (endpoint: mean survival time, dose: 200.0 mg/kg/injection, schedule: Q01DX001 (ip), vehicle: carboxymethylcellulose (CMC)): 103 % of control
T/C (endpoint: mean survival time, dose: 300.0 mg/kg/injection, schedule: Q01DX001 (ip), vehicle: carboxymethylcellulose (CMC)): 104 % of control and 117 % of control
T/C (endpoint: median survival time, dose: 12.5 mg/kg/injection, schedule: Q01DX009 (ip), vehicle: steriod suspending solution): 116 % of control and 122 % of control
T/C (endpoint: median survival time, dose: 50.0 mg/kg/injection, schedule: Q01DX009 (ip), vehicle: steriod suspending solution): 166 % of control
T/C (endpoint: median survival time, dose: 100.0 mg/kg/injection, schedule: Q01DX009 (ip), vehicle: steriod suspending solution): 122 % of control

O=C1OC(=O)C2C1C1CCC2(C2OCCO2)O1 (stereo not given)
T/C [10]: 93 % of control
T/C [11]: 101 % of control
T/C [12]: 101 % of control

CSC(=S)NC#N
T/C [4]: 93 % of control
T/C [5]: 93 % of control
T/C [13]: 101 % of control
T/C [6]: 89 % of control
T/C [14]: 106 % of control
T/C (endpoint: mean survival time, dose: 400.0 mg/kg/injection, schedule: Q04DX003 (ip), vehicle: saline): 98 % of control

COc1ccc(OC)c(NC(=O)Oc2ccc(NC(C)=O)cc2)c1
T/C [15]: 104 % of control
T/C [16]: 102 % of control
T/C [17]: 96 % of control

C=CCOC(=O)Nc1cccc(OC(=O)NC(C)(C)C)c1
T/C (endpoint: mean survival time, dose: 100.0 mg/kg/injection, schedule: Q04DX003 (ip), vehicle: saline with Tween-80): 105 % of control
T/C (endpoint: mean survival time, dose: 200.0 mg/kg/injection, schedule: Q04DX003 (ip), vehicle: saline with Tween-80): 99 % of control
T/C (endpoint: mean survival time, dose: 400.0 mg/kg/injection, schedule: Q04DX003 (ip), vehicle: saline with Tween-80): 98 % of control

CCCCCCCCCCCCCCCCOC(=O)C[n+]1cccc(C(N)=O)c1
T/C [13]: 92 % of control
T/C [14]: 99 % of control

CNC(=O)NNc1ccccc1
T/C [18]: 101 % of control
T/C [19]: 101 % of control
T/C [20]: 105 % of control

COC(=O)c1cn(C2OC(CO)C(O)C2O)c2ncnc(N)c12 (stereo not given)
T/C (endpoint: mean survival time, dose: 20.0 mg/kg/injection, schedule: Q01DX001 (ip), vehicle: water): 108 % of control
T/C (endpoint: mean survival time, dose: 40.0 mg/kg/injection, schedule: Q01DX001 (ip), vehicle: water): 89 % of control

C[C@]12CCC(=O)C=C1CC[C@@H]1[C@@H]2CC[C@@]2(C)[C@H]1CC[C@]2(C)O
T/C (endpoint: mean survival time, dose: 100.0 mg/kg/injection, schedule: Q04DX003 (sc), vehicle: steriod suspending solution): 95 % of control
T/C (endpoint: mean survival time, dose: 200.0 mg/kg/injection, schedule: Q04DX003 (sc), vehicle: steriod suspending solution): 102 % of control
T/C (endpoint: mean survival time, dose: 400.0 mg/kg/injection, schedule: Q04DX003 (sc), vehicle: steriod suspending solution): 97 % of control

c1cc[c]([Pb]([c]2ccccc2)([c]2ccccc2)[n]2ccc3ccccc32)cc1
T/C (endpoint: mean survival time, dose: 1.0 mg/kg/injection, schedule: Q04DX003 (ip), vehicle: saline with Tween-80): 113 % of control
T/C (endpoint: mean survival time, dose: 1.56 mg/kg/injection, schedule: Q01DX009 (ip), vehicle: saline with Tween-80): 91 % of control
T/C (endpoint: mean survival time, dose: 2.0 mg/kg/injection, schedule: Q04DX003 (ip), vehicle: saline with Tween-80): 90 % of control
T/C (endpoint: mean survival time, dose: 3.12 mg/kg/injection, schedule: Q01DX009 (ip), vehicle: saline with Tween-80): 89 % of control
T/C (endpoint: mean survival time, dose: 4.0 mg/kg/injection, schedule: Q04DX003 (ip), vehicle: saline with Tween-80): 101 % of control
T/C (endpoint: mean survival time, dose: 8.0 mg/kg/injection, schedule: Q04DX003 (ip), vehicle: saline with Tween-80): 101 % of control

Nc1ncc(C(=O)c2ccccc2)cc1Br
T/C [1]: 97 % of control
T/C [2]: 97 % of control
T/C [3]: 97 % of control

CCCCCC(=O)OCCOC(=O)CCCCC
T/C [18]: 103 % of control
T/C [19]: 101 % of control
T/C [20]: 92 % of control

CN(C)/N=C/c1cccc[n+]1C
T/C (endpoint: mean survival time, dose: 6.25 mg/kg/injection, schedule: Q01DX009 (ip), vehicle: saline): 102 % of control
T/C (endpoint: mean survival time, dose: 12.5 mg/kg/injection, schedule: Q01DX009 (ip), vehicle: saline): 106 % of control
T/C (endpoint: mean survival time, dose: 25.0 mg/kg/injection, schedule: Q01DX009 (ip), vehicle: saline): 115 % of control

Nc1ncnc(N)c1NC(=O)c1ccc(Cl)cc1
T/C (endpoint: mean survival time, dose: 25.0 mg/kg/injection, schedule: Q01DX001 (ip), vehicle: saline with Tween-80): 107 % of control
T/C (endpoint: mean survival time, dose: 50.0 mg/kg/injection, schedule: Q01DX001 (ip), vehicle: saline with Tween-80): 104 % of control
T/C (endpoint: mean survival time, dose: 100.0 mg/kg/injection, schedule: Q01DX001 (ip), vehicle: saline with Tween-80): 120 % of control

NC(C1SCCS1)C(O)C(O)C(O)CO (stereo not given)
T/C [5]: 98 % of control
T/C [6]: 91 % of control
T/C (endpoint: mean survival time, dose: 400.0 mg/kg/injection, schedule: Q01DX009 (ip), vehicle: saline): 96 % of control

O=C(Nc1ccc(Cl)c([N+](=O)[O-])c1)Nc1nc(C(F)(F)F)cc(=O)[nH]1
T/C [15]: 98 % of control
T/C [16]: 95 % of control
T/C [17]: 93 % of control
